The values below come from PMC6087734, “Loss of S100A1 expression leads to Ca^2+ release potentiation in mutant mice with disrupted CaM and S100A1 binding to CaMBD2 of RyR1” (Physiological Reports, 2018).

Entries after “also recorded” stand apart in the source; their conditions may differ. Residues, ends and D or L forms follow the SMILES beside them.

For experiment [1], the target named is T1, S100A1 (recombinant human 15N-labeled, Ca2+-loaded) (Homo sapiens, UniProt P23297).
T1 construct: made in house
T1 sequence (P23297 1-94): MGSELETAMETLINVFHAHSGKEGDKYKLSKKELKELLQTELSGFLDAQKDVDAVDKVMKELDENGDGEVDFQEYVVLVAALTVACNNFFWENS
Description: ITC of S100A1 association with RyR1 CaMBD peptides. The note with it: for S100A1 binding, in words: 10 mmol/L Ca2+; for N (sites) / Kd / ΔG / ΔH: 37°C, two-site fit, mean ± SD, n = 3; for difference in affinity between the tight and weak peptide-binding site: ratio of KD at the two sites on S100A1 dimer. The format is binding. How it is done: All peptides were synthesized using […] peptide synthesis and their purity was determined to be >95% by high pressure liquid chromatography and mass spectrometry (Biosynthesis Inc., Lewisville, TX or GenScript, Piscataway, NJ). Three peptides derived from human RyR1 sequence were synthesized: CaMBD2, residues 3614‐3640, […]; CaMBD1, residues 1975‐1999, […]; and CaMBD3, residues 4303‐4326, […]. As they are internal peptides the C‐terminus was […] and N‐terminus was acetylated to neutralize the charged ends. The peptides stock were made in D6‐DMSO and their concentration were determined by quantitative amino acid analysis (Biosynthesis Inc., Lewisville, TX) and/or determined using the extinction coefficient for the methyl ester of N‐acetyl tryptophan, ε280 = 5600 cm^−1M^−1.
Expression and purification (>95% by SDS‐PAGE) of recombinant human ^15N‐labeled S100A1 was performed as previous described (Melville et al. 2017b). The concentrations of S100A1 stock solutions were determined using the Bio‐Rad Protein Assay (Bio‐Rad Inc., Hercules, CA) using a known concentration of BSA as the standard. Concentrations are given in S100A1 monomer concentration except where indicated.
Heat changes during the titration of each CaMBD peptide into Ca^2+‐S100A1 were measured using a VP‐ITC titration microcalorimeter (MicroCal, Inc., Northhampton, MA) as done previously (Wilder et al. 2003). All solutions were degassed under vacuum and equilibrated at 37°C prior to titration. For each titration the sample cell (1.4 mL) contained 10 mmol/L TES, pH 7.2, 15 mmol/L NaCl, and 10 mmol/L CaCl2, 0.5 mmol/L TCEP, <5% D6‐DMSO (from peptide stocks or equivalent D6‐DMSO added to controls), and 0.04 mmol/L CaMBD peptide, while the reference cell contained water. Upon equilibration, 0.20–0.35 mmol/L S100A1 (dimer concentration) prepared in the same buffer without peptide but equivalent D6‐DMSO was injected using the default injection rate with a time interval between each injection to allow the sample to return to baseline. The resulting titration curves were corrected for protein‐free buffer control.
Images were collected and evaluated using the same settings and enhancing parameters so that all images could be directly compared. Line‐scan images were analyzed using LSM examiner (Carl Zeiss, Jena, DE). Calculation of AP‐induced Ca^2+ signals were conducted using Origin Pro 8 (OriginLab Corporation, Northampton, MA, USA) and SPSS for Windows ver. 24.0 (SPSS Inc., Chicago, IL). Summary data were reported as mean ± SD. Normal distribution of data was assessed using the Kolmogorov–Smirnov test. Unpaired two sample Student's t‐test was used to test for differences between the means of the indo 1‐resting values and peak AP‐induced Ca^2+ transients from two different samples. ITC results were background buffer subtracted and analyzed using the Origin for ITC software (MicroCal, Northampton, MA) and fit using two‐site fitting model (Freire et al. 1990). Differences were considered significant when P < 0.05.

The next experiment relates to CaM. The note with it: ref Lau et al. 2014, cited from earlier work; for affinity sequence of CaM for the CaMBDs, in words: ITC data; for CaM binding, in words: isothermal calorimetry, rabbit RyR1 peptides. An excerpt:
There is substantial evidence that CaM and S100A1 may bind to multiple sites within the RyR1. […] Given the affinity of S100A1 for the CaMBDs, it is likely that the observed RyR1 re ...

Experiment [2] has as its target RyR1 CaMBD1 peptide (site 1) (Homo sapiens). Kind of experiment: ITC. Background: ITC needs no label: the signal is the heat of the interaction.
Experiment [3] deals with RyR1 CaMBD1 peptide (site 2) (Homo sapiens). Description: ITC.
Experiment [4] deals with RyR1 CaMBD2 peptide (site 1) (Homo sapiens). Description: ITC.
Experiment [5] has as its target RyR1 CaMBD2 peptide (site 2) (Homo sapiens). Description: ITC.
In experiment [6] the target is RyR1 CaMBD3 peptide (site 1) (Homo sapiens). Kind of experiment: ITC.
The target in experiment [7] is RyR1 CaMBD3 peptide (site 2) (Homo sapiens). Description: ITC.
The mark [8] stands for this setting: peptide-binding site 1, ITC VP-ITC, 10 mmol/L TES pH 7.2, 15 mmol/L NaCl, 10 mmol/L CaCl2, 0.5 mmol/L TCEP, <5% D6-DMSO, 0.04 mmol/L peptide in cell, 0.20-0.35 mmol/L S100A1 (dimer) injected.
Setting [9] is: peptide-binding site 1, ITC, pH 7.2, 10 mmol/L CaCl2.
Setting [10] is: peptide-binding site 2, ITC, pH 7.2, 10 mmol/L CaCl2.

As for `CC[C@H](C)[C@H](NC(=O)[C@H](CC(C)C)NC(=O)[C@H](CC(C)C)NC(=O)CNC(=O)[C@H](Cc1ccc(O)cc1)NC(=O)[C@H](CCCNC(=N)N)NC(=O)[C@H](CO)NC(C)=O)C(=O)N[C@@H](CCCCN)C(=O)N[C@@H](C)C(=O)N[C@@H](Cc1ccccc1)C(=O)N[C@@H](CO)C(=O)N[C@@H](CCSC)C(=O)N[C@H](C(=O)N[C@@H](C)C(=O)N[C@@H](C)C(=O)N[C@@H](CCC(=O)O)C(=O)N[C@H](C(=O)N[C@@H](C)C(=O)N[C@@H](CCCNC(=N)N)C(=O)N[C@@H](CCCNC(=N)N)C(=O)N[C@H](C(=O)N[C@@H](CCCNC(=N)N)C(=O)N[C@@H](CCC(=O)O)C(=O)N[C@@H](Cc1ccccc1)C(=O)N[C@@H](CCCNC(=N)N)C(N)=O)[C@@H](C)O)[C@@H](C)O)[C@@H](C)O` [CaMBD1] (Ac-SRYGLLIKAFSMTAAETARRTREFR-NH2), the “S100A1 binding, in words” value in experiment [1] (ITC) was “binds with different affinities; also recorded: weakest affinity”. Besides, in experiment [1] (setting [8]), the “N (sites)” value is listed as 1.14 ± 0.10. Moreover, in experiment [1] (setting [9]), the Kd was 1.3 ± 0.284 µM, the ΔG was -8.4 ± 0.1 kcal/mol and the ΔH is -4.5 ± 0.7 kcal/mol. In experiment [1] (setting [10]), the Kd was 21 µM, the “N (sites)” value was found to be 0.75 ± 0.07, the ΔG was -6.7 ± 0.2 kcal/mol and the ΔH is -10.8 ± 0.4 kcal/mol. Further, the “difference in affinity between the tight and weak peptide-binding site” value (“difference” for short) in experiment [1] amounted to 16 fold. For the same molecule, the “affinity sequence of CaM for the CaMBDs, in words” value (shortened to “affinity sequence of CaM”) with CaM was “CaMBD2 > CaMBD3 > CaMBD1”.

Take `CC(=O)N[C@@H](CCCNC(=N)N)C(=O)N[C@@H](C)C(=O)N[C@@H](CC(C)C)C(=O)N[C@@H](CCCNC(=N)N)C(=O)NCC(=O)N[C@@H](CC(C)C)C(=O)N[C@@H](CO)C(=O)N[C@@H](Cc1ccc(O)cc1)C(=O)N[C@@H](CCCNC(=N)N)C(=O)N[C@@H](CO)C(=O)N[C@@H](CC(C)C)C(=O)N[C@@H](CCCNC(=N)N)C(=O)N[C@@H](CCCNC(=N)N)C(=O)N[C@@H](CCCNC(=N)N)C(=O)N[C@H](C(=O)N[C@@H](CCCNC(=N)N)C(=O)N[C@@H](CCCNC(=N)N)C(=O)N[C@@H](CC(C)C)C(=O)N[C@@H](CCCNC(=N)N)C(=O)N[C@@H](CCCNC(=N)N)C(=O)N[C@@H](CC(C)C)C(=O)N[C@H](C(=O)N[C@@H](C)C(=O)N[C@@H](CCCNC(=N)N)C(N)=O)[C@@H](C)O)C(C)C` [CaMBD3] (Ac-RALRGLSYRSLRRRVRRLRRLTAR-NH2): in experiment [1] (ITC), the “S100A1 binding, in words” value is recorded as “binds with different affinities; also recorded: tightest S100A1 binding”. Moreover, the “N (sites)” value in experiment [1] (setting [8]) stood at 1.79 ± 0.08. In addition, in experiment [1] (setting [9]), the Kd was 0.0089 ± 0.011 µM, the ΔG was -11.9 ± 1.2 kcal/mol and the ΔH is -3.6 ± 0.7 kcal/mol. In experiment [1] (setting [10]), the dissociation constant Kd stood at 6.7 µM, the “N (sites)” value came out at 1.27 ± 0.07, the ΔG was -7.4 ± 0.2 kcal/mol and the ΔH was -6.1 ± 0.9 kcal/mol. Moreover, the “difference” value in experiment [1] is 755 fold. In addition, the “affinity sequence of CaM” value with CaM is “CaMBD2 > CaMBD3 > CaMBD1”.

With “rCaMBD3: peptide from rabbit RyR1, residues 4295‐4325, Lau et al. 2014 (RLAAAAARALRGLSYRSLRRRVRRLRRLTAR; UniProt P11716 4295-4325, looked up, fragment) [reference compound]”, the “CaM binding, in words” value with CaM is reported as “CaM can bind”.

On to “rCaMBD2: peptide from rabbit RyR1, residues 1975‐1999 (as printed), Lau et al. 2014 (SRYALLMRAFTMSAAETARRTREFR; UniProt P11716 1975-1999, looked up, fragment) [reference compound]”, for which the “CaM binding, in words” value with CaM is on record as “CaM can bind”.

In the case of `CSCC[C@H](NC(=O)[C@H](CCCNC(=N)N)NC(=O)[C@H](Cc1ccccc1)NC(=O)[C@H](CS)NC(=O)[C@H](C)NC(=O)[C@@H](NC(=O)[C@@H](NC(=O)[C@H](C)NC(=O)[C@H](CCCNC(=N)N)NC(=O)[C@H](CCCNC(=N)N)NC(=O)[C@H](CCCNC(=N)N)NC(=O)[C@H](CCC(N)=O)NC(=O)[C@H](CCCCN)NC(=O)[C@H](CO)NC(=O)[C@H](CC(C)C)NC(=O)[C@H](CC(C)C)NC(=O)[C@H](CCCCN)NC(=O)[C@H](Cc1c[nH]cn1)NC(=O)[C@H](Cc1c[nH]c2ccccc12)NC(=O)[C@@H](NC(=O)[C@H](C)NC(=O)[C@H](CCCCN)NC(=O)[C@H](CCCCN)NC(=O)[C@H](CO)NC(=O)[C@H](CCCCN)NC(C)=O)C(C)C)C(C)C)C(C)C)C(=O)N[C@H](C(=O)N1CCC[C@H]1C(N)=O)[C@@H](C)O` [CaMBD2] (Ac-KSKKAVWHKLLSKQRRRAVVACFRMTP-NH2), the “N (sites)” value in experiment [1] (setting [8]) was found to be 0.78 ± 0.09. In experiment [1] (setting [9]), the Kd is 0.146 ± 0.0239 µM, the ΔG was -9.7 ± 0.1 kcal/mol and the ΔH was -11.4 ± 0.2 kcal/mol. Besides, in experiment [1] (setting [10]), the Kd came to 17 µM, the “N (sites)” value is 0.51 ± 0.15, the ΔG is -6.8 ± 0.1 kcal/mol and the ΔH was -10.3 ± 3.0 kcal/mol. Moreover, in experiment [1], the “difference” value is given as 114 fold. The “affinity sequence of CaM” value with CaM is on record as “CaMBD2 > CaMBD3 > CaMBD1”.

Consider “rCaMBD1: peptide from rabbit RyR1, residues 3614‐3640 (as printed), Lau et al. 2014 (KSKKAVWHKLLSKQRRRAVVACFRMTP; UniProt P11716 3614-3640, looked up, fragment) [reference compound]”, for which, in the experiment with CaM, the “CaM binding, in words” value is reported as “CaM can bind”.

B1: S100A1, P23297 (protein)
chain: MGSELETAMETLINVFHAHSGKEGDKYKLSKKELKELLQTELSGFLDAQKDVDAVDKVMKELDENGDGEVDFQEYVVLVAALTVACNNFFWENS
On to B1, for which the Kd in experiment [2] came out at 1.3 µM; in experiment [3] it was 21 µM; in experiment [4], 0.146 µM; in experiment [5], 17 µM; in experiment [6] it was 0.0089 µM; in experiment [7] it was 6.7 µM.

For orientation: Kd means the equilibrium constant for the complex coming apart.
